According to ChEMBL document CHEMBL4028852, “Design of a Chemical Probe for the Bromodomain and Plant Homeodomain Finger-Containing (BRPF) Family of Proteins” (J Med Chem, 2017):

What was measured:
[1] = molecular target: Nav1.5 (Homo sapiens, UniProt Q14524); experiment: Inhibition of Nav1.5 (unknown origin) at 30 uM
[2] = molecular target: Cav1.2 (Homo sapiens, UniProt Q13936); experiment: Inhibition of Cav1.2 (unknown origin) at 30 uM
[3] = molecular target: T1, Transcription intermediary factor 1-alpha (Homo sapiens, UniProt O15164); experiment: Inhibition of human TRIM24 bromodomain (790 to 977 residues) expressed in Escherichia coli BL21 after 1 hr by BROMOscan assay
T1 sequence (O15164 whole entry): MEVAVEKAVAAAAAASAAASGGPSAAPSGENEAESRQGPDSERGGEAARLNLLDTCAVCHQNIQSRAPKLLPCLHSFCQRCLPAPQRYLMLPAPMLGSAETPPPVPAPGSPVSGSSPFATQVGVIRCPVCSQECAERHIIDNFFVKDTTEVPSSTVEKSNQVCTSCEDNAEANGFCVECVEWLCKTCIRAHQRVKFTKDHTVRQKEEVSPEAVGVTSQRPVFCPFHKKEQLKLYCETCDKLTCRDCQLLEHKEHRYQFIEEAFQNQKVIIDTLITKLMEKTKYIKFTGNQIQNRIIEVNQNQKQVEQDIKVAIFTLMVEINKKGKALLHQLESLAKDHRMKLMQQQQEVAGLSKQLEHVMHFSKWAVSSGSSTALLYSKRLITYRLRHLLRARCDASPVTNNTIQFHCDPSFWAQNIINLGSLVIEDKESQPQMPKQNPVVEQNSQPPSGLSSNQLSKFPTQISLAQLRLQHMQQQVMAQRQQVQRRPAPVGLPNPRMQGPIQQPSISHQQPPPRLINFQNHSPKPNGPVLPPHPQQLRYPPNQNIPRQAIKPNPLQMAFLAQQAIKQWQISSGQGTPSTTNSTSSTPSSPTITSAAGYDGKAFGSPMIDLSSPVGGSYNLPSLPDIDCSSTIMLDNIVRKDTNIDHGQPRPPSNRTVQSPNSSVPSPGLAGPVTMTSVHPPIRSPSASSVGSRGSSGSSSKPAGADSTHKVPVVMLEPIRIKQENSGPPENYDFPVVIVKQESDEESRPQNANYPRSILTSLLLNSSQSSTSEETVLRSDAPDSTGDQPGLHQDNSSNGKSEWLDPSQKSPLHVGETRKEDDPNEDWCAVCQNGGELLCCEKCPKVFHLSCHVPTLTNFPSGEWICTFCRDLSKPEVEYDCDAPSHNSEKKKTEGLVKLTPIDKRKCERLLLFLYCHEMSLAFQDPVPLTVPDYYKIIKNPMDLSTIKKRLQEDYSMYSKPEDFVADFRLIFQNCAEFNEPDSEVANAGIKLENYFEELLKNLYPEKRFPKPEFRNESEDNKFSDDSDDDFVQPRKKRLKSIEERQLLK

[4] = tested on: Liver; experiment: Metabolic stability in mouse liver microsomes by UPLC-MS/MS analysis; assay type: ADME, microsome
[5] = Inhibition of cell proliferation of human NCI60 cells at 10 uM after 48 hrs by SRB assay; assay type: functional; settings: NCI60, 48 h
[6] = Inhibition of cell proliferation of human RERF-LC-Sq1 cells after 72 hrs by MTS assay; assay type: functional; settings: RERF-LC-Sq1, 72 h
[7] = molecular target: T2, Bromodomain and PHD finger-containing protein 3 (Homo sapiens, UniProt Q9ULD4); experiment: Inhibition of human BRPF3 (588 to 701 residues) expressed in Escherichia coli BL21 after 1 hr by BROMOscan assay
T2 sequence (Q9ULD4 whole entry): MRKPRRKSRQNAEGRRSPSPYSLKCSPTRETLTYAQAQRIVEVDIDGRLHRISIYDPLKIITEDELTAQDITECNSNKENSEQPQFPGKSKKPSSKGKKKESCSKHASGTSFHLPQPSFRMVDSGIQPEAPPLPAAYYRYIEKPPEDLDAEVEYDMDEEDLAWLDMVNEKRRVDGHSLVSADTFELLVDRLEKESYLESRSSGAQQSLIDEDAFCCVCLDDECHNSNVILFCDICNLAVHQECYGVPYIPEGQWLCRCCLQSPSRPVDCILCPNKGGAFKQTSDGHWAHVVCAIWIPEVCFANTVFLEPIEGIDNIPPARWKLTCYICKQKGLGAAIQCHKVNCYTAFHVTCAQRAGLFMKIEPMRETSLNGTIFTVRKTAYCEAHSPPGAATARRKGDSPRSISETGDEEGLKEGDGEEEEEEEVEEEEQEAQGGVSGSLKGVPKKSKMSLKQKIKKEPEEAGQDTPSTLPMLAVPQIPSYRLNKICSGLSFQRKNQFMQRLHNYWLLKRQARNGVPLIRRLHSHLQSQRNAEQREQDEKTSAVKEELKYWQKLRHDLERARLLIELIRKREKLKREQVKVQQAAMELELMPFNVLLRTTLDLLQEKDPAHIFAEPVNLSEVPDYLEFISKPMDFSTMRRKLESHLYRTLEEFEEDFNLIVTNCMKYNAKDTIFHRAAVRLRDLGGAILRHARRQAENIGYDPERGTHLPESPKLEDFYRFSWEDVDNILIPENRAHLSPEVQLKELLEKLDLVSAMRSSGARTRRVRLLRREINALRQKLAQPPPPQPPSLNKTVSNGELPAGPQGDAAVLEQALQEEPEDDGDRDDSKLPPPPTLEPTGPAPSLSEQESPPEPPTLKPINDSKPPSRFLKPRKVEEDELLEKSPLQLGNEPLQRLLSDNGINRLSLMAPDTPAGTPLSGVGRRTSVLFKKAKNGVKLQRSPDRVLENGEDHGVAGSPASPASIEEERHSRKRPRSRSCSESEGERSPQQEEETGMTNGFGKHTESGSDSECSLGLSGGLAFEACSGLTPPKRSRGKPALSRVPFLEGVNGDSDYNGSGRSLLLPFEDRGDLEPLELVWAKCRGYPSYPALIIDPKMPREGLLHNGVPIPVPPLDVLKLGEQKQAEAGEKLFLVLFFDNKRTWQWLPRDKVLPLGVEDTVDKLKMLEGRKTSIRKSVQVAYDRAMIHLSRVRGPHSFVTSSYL

Nav1.5, sequence (Q14524 whole entry): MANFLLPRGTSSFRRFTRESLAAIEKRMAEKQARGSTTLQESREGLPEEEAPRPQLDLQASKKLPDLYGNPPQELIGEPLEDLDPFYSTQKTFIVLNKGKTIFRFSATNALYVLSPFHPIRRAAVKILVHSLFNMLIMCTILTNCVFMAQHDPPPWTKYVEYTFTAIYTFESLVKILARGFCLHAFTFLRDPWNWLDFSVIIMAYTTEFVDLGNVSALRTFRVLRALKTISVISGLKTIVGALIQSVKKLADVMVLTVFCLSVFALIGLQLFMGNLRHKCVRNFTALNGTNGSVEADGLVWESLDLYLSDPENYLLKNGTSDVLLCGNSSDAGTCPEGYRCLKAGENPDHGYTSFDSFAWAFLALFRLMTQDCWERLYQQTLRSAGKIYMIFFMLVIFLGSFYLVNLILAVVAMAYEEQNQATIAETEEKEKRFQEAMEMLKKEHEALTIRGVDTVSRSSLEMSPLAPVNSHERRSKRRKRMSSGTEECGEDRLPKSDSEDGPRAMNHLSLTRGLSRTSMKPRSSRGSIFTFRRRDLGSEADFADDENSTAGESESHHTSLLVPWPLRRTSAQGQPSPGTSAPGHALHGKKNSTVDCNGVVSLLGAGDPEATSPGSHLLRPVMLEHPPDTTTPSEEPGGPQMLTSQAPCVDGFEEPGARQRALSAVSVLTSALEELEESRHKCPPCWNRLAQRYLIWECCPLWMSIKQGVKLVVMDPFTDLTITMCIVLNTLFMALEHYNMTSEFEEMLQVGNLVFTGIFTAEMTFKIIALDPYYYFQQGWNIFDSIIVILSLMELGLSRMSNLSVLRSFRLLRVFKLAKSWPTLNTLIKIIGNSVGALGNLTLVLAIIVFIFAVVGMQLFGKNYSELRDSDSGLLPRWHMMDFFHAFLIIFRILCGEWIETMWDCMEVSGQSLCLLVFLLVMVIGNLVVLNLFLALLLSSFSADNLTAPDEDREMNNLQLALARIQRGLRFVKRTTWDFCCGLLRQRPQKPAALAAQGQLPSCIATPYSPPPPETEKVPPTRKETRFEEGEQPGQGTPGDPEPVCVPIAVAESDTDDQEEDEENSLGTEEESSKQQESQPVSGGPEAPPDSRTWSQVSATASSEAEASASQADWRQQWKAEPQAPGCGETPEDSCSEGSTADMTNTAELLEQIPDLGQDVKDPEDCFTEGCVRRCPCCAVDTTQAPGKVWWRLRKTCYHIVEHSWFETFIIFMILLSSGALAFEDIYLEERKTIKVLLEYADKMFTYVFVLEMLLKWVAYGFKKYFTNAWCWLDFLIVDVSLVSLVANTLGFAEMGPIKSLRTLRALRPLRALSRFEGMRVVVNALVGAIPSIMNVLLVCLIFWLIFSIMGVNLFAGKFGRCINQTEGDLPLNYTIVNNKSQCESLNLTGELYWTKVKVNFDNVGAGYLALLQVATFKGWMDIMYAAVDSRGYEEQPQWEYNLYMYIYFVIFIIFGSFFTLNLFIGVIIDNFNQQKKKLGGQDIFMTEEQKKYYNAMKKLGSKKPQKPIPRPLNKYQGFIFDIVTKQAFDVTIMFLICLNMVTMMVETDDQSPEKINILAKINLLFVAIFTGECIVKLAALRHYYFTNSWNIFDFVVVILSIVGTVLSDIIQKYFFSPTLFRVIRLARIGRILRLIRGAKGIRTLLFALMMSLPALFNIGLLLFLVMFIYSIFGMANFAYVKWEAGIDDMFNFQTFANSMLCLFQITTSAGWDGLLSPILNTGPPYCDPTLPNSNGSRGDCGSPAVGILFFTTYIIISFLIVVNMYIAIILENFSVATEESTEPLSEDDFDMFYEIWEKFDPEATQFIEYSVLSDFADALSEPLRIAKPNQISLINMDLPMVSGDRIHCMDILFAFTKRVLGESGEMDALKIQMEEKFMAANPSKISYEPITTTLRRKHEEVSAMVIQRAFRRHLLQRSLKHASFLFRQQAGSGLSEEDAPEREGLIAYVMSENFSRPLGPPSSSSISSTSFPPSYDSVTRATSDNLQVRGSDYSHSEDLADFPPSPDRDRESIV
Cav1.2, sequence (Q13936 whole entry, the tested form may be a part): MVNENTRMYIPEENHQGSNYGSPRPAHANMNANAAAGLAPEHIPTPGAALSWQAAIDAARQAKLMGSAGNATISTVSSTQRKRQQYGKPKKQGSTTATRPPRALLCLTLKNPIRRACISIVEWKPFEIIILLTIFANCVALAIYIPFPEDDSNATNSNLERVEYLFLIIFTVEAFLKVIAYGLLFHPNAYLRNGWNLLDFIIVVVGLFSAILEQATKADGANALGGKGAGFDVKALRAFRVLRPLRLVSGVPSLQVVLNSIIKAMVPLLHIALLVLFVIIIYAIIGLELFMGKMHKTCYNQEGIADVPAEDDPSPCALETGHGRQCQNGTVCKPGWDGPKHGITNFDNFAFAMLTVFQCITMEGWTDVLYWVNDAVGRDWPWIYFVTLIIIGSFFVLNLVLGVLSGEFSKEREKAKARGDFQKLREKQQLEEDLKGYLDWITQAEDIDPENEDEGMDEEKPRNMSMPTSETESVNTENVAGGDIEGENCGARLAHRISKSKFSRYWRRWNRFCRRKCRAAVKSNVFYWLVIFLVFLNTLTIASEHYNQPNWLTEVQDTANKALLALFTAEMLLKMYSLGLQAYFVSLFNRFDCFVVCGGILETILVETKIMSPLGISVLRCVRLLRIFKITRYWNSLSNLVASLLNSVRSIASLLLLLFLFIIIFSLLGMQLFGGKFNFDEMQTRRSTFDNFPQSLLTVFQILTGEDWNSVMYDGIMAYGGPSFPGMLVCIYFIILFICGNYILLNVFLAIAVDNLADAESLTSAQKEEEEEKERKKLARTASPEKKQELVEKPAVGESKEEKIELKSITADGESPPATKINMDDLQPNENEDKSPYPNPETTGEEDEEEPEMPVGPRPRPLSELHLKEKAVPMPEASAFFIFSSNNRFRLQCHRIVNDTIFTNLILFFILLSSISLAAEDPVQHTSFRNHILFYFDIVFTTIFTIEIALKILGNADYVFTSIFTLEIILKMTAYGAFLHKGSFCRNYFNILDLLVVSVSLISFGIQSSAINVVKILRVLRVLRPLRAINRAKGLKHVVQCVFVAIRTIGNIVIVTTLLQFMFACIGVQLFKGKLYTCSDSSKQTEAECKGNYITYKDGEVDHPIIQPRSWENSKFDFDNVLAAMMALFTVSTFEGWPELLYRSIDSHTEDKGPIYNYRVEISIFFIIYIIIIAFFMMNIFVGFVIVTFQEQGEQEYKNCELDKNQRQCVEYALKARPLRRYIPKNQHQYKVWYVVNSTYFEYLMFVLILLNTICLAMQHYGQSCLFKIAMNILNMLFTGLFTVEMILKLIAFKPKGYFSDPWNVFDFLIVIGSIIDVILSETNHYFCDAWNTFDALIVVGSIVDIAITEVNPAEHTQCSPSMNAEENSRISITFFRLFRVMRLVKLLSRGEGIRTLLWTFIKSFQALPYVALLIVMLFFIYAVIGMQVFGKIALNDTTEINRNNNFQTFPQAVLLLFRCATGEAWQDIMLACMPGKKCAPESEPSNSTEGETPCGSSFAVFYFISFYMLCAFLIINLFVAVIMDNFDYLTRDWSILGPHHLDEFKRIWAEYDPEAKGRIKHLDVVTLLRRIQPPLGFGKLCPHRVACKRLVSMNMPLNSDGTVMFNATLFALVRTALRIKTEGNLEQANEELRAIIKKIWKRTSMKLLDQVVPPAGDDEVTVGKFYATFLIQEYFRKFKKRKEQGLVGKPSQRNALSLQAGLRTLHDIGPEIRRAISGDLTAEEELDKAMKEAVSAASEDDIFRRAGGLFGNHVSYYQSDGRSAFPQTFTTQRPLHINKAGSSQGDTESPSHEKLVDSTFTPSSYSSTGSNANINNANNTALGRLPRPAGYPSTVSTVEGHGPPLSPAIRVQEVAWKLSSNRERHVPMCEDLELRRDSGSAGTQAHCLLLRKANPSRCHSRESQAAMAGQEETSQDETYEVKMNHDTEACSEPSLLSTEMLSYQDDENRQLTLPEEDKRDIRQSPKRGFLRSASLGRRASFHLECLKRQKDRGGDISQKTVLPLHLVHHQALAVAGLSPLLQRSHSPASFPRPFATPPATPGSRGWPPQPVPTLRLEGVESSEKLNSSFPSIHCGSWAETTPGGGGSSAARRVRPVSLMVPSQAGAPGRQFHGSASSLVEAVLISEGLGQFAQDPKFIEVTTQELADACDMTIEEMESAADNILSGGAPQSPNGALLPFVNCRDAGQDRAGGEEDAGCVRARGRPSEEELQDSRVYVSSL

COc1cc(C#N)ccc1S(=O)(=O)Nc1ccc2c(c1)cc(C)c(=O)n2C
inhibition at 30 µM [1]: < 40%
inhibition at 30 µM [2]: < 40%
IC50 [3]: 1.6 µM
Stability [4]: Stable
inhibition at 10 µM [5]: < 25%
GI50 [6]: 16.6 µM

Cn1c(=O)ccc2cc(S(=O)(=O)Nc3ccccc3)ccc21
IC50 [7]: > 100 µM

COc1cc(C#N)ccc1S(=O)(=O)Nc1ccc2c(c1)cc(C(C)C)c(=O)n2C
IC50 [7]: 4.6 µM
